Laboratory results published in patent US9394260B2, “Pyrimidinone carboxamide inhibitors of endothelial lipase” (BRISTOL-MYERS SQUIBB COMPANY, priority 2012, dated 2016).
pIC50: −log10 of the molar value.

biological target: T1, endothelial lipase (EL) (Homo sapiens, UniProt Q9Y5X9); assay: Endothelial lipase (EL) enzymatic assay with fluorescent substrate A10070 in DMPG vesicles; type: biochemical; conditions: conditioned media from HT-1080 cells overexpressing endogenous EL, 20 min preincubation at 37° C.
T1 construct: transformed by RAGE technology (Athersys) to overexpress endogenous EL; endogenous in cells; conditioned medium used as the enzyme source
T1 sequence (Q9Y5X9 21-500): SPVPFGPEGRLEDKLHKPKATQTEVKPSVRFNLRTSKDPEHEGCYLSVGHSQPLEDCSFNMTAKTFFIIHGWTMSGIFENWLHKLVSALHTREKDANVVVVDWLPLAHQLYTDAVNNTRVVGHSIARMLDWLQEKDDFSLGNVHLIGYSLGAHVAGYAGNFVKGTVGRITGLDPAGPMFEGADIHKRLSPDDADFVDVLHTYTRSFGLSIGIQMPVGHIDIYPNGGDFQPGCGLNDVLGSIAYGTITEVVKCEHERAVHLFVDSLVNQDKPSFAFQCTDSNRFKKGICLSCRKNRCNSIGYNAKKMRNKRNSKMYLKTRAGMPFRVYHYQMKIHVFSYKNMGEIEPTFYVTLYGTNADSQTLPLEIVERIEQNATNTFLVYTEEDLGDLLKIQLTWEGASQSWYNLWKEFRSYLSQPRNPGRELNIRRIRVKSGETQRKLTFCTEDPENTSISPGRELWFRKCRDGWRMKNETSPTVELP
Method: Endothelial lipase activity was measured using a fluorescent substrate, A10070, (Invitrogen, CA) doped into an artificial vesicle containing DMPG (Avanti Polar Lipids) as the excipient. Vesicles were prepared by combining 285 μL of 1 mM DMPG in a 1:1 mixture of MeOH and CHCl3 with 15 μL of 1 mM A10070 in a 1:1 mixture of MeOH and CHCl3. The mixture was dried under nitrogen and resuspended in 150 μL of 50 mM HEPES pH 8.0 buffer containing 100 mM NaCl and 0.2 mM EDTA. The sample was allowed to sit at rt for 15 min and then was sonicated 3×4 mins on ice with a Branson Sonicator using duty cycle 1. This preparation provides vesicles with a mole fraction of 0.05 for the FRET substrate.
The enzymatic assay was measured using white, opaque 96-well half area plates. Each well contained 60 μL of assay buffer (50 mM HEPES pH 8.0, 50 mM NaCl and 1 mM CaCl2) and 2 ul of a DMSO solution containing compound of interest. Conditioned media obtained from HT-1080 cells, which were transformed by RAGE technology (Athersys) to overexpress endogenous EL, was added and the reaction was allowed to incubate for 20 min at 37° C. with gentle agitation. The reaction was started by the addition of 20 μL of a 1:4 dilution of vesicles. The final total reaction volume was 100 μL. The reaction rates were measured on a Gemini plate reader with an excitation wavelength of 488 nm and a emission of 530 nm. Readings were taken every 20 seconds for 10 min with agitation between each reading. The slope of the linear portion of the readout was used to calculate the rate of the reaction.
The exemplified examples disclosed in the present invention were tested in the EL assay described above and found having EL inhibitory activity. A range of EL IC50 values of ≦10 μM (10000 nM) was observed.

| Compound | pIC50 |
| --- | --- |
| C[C@@H](NC(=O)c1[nH]c(=O)[nH]c(=O)c1N)c1cccc(-c2cnn(CCc3c[nH]c4ccccc34)c2)c1 [Example 155, (R)-N-(1-(3-(1-(2-(1H-indol-3-yl)ethyl)-1H-pyrazol-4-yl)phenyl)ethyl)-5-amino-2,6-dioxo-1,2,3,6-tetrahydro-pyrimidine-4-carboxamide] | 6.37 |
| C[C@@H](NC(=O)c1[nH]c(=O)[nH]c(=O)c1N)c1ccc2ccccc2c1 [Example 14, (R)-5-amino-N-(1-(naphthalen-2-yl)ethyl)-2,6-dioxo-1,2,3,6-tetrahydropyrimidine-4-carboxamide] | 5.12 |
| C[C@H](COc1ccc2c(c1)NC(=O)CC2)NC(=O)c1[nH]c(=O)[nH]c(=O)c1N [Example 120, (R)-5-amino-2,6-dioxo-N-(1-(2-oxo-1,2,3,4-tetrahydroquinolin-7-yloxy)propan-2-yl)-1,2,3,6-tetrahydropyrimidine-4-carboxamide] | 5.27 |
| Nc1c(C(=O)NCc2cccc(-c3ccc(F)cc3)c2)[nH]c(=O)[nH]c1=O [Example 25, 5-amino-N-((4′-fluorobiphenyl-3-yl)methyl)-2,6-dioxo-1,2,3,6-tetrahydropyrimidine-4-carboxamide] | 5.37 |

The next lines start with the values.

| pIC50 | Compound |
| --- | --- |
| 5.33 | CCCOc1cc(F)ccc1CNC(=O)c1c(O)c(=O)n(C)c(=O)n1CCC [Example 176, N-(4-fluoro-2-propoxybenzyl)-5-hydroxy-1-methyl-2,6-dioxo-3-propyl-1,2,3,6-tetra-hydropyrimidine-4-carboxamide] |
| 6.36 | C[C@@H](NC(=O)c1[nH]c(=O)[nH]c(=O)c1N)c1cccc(-c2cnn(CC3CCN(C(=O)OCc4ccccc4)CC3)c2)c1 [Example 161, (R)-benzyl 4-((4-(3-(1-(5-amino-2,6-dioxo-1,2,3,6-tetra-hydropyrimidine-4-carboxamido)ethyl)phenyl)-1H-pyrazol-1-yl)methyl) piperidine-1-carboxylate] |
